Measurements from US9440930B2, “Substituted bicyclic dihydropyrimidinones and their use as inhibitors of neutrophil elastase activity” (Boehringer Ingelheim International GmbH, priority 2014, dated 2016).

Key:
cytochrome P450 2C8 = target: T1, cytochrome P450 2C8 (Homo sapiens, UniProt P10632); assay: Cytochrome P450 2C8 inhibition; assay type: in vitro ADME; settings: human liver microsomes, Amodiaquine deethylation
T1 construct: is assayed at 37° C. with human liver microsomes; from tissue; host or cells: human liver microsomes
T1 sequence (P10632 1-490): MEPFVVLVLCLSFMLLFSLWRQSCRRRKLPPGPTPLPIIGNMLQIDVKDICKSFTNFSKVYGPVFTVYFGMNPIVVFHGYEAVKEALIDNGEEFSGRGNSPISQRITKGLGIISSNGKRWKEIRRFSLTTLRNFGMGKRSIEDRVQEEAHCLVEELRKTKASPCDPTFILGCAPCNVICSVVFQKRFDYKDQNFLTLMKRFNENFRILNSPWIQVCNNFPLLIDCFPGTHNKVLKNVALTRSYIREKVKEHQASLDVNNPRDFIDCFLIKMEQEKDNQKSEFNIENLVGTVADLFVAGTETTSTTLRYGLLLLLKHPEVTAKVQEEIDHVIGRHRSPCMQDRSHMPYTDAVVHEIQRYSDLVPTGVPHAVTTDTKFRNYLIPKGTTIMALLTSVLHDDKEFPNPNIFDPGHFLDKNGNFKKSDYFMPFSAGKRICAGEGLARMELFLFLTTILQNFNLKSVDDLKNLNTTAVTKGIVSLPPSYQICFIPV
Text: Assay for Determination of Cytochrome P450 2C8 Inhibition

[1] = Drug transport across human Caco-2 cells; assay type: in vitro ADME; settings: pH 7.2, 37° C.
Text: Assay for Determination of Drug Transport Across Human Caco-2 Cells
The assay provides information on the potential of a compound to pass the cell membrane, on the extent of oral absorption as well as on whether the compound is actively transported by uptake and/or efflux transporters. For the measurement of permeability across polarized, confluent human cancer colon carcinoma cells 2 (Caco-2) cell monolayers grown on permeable filter supports are used as the in vitro absorption model.
Apparent permeability coefficients (PE) of the compounds across the Caco-2 monolayers are measured (pH 7.2, 37° C.) in apical-to-basal (AB) (absorptive) and basal-to-apical (BA) (secretory) transport direction. AB permeability (PEAB) represents drug absorption from the intestine into the blood and BA permeability (PEBA) drug secretion from the blood back into the intestine via both passive permeability as well as active transport mechanisms mediated by efflux and uptake transporters that are expressed on the Caco-2 cells. The compounds are assigned to permeability/absorption classes by comparison of the AB permeabilities with the AB permeabilities of reference compounds with known in vitro permeability and oral absorption in the human. Identical or similar permeabilities in both transport directions indicate passive permeation, vectorial permeability points to additional active transport mechanisms. […] Active transport is concentration-dependently saturable.
Caco-2 cells (1-2*10^5 cells/cm^2 area) are seeded on filter inserts (Costar transwell polycarbonate or PET filters, 0.4 μm pore size) and cultured (DMEM) for 10 to 25 days. Compounds are dissolved in appropriate solvent (like DMSO, 1-20 min stock solutions). Stock solutions are diluted with HTP-4 buffer (128.13 min NaCl, 5.36 min KCl, 1 mM MgSO4, 1.8 min CaCl2, 4.17 min NaHCO3, 1.19 min Na2HPO4×7H2O, 0.41 mM NaH2PO4×H2O, 15 min HEPES, 20 min glucose, pH 7.2) to prepare the transport solutions (typically 10 μM compound, final DMSO<=0.5%). The transport solution (TL) is applied to the apical or basolateral donor side for measuring A-B or B-A permeability (3 filter replicates), respectively. The receiver side contains HTP-4 buffer supplemented with 2% BSA. Samples are collected at the start and end of experiment from the donor and at various time intervals for up to 2 hours also from the receiver side for concentration measurement by LC-MS/MS or scintillation counting. Sampled receiver volumes are replaced with fresh receiver solution.

SMILES: CN1C(=O)N(c2cccc(C(F)(F)F)c2)C2=C(C(=O)CCC2)[C@H]1c1ccc(C#N)cc1[S+](C)[O-] (single isomer, unassigned) [Example 2.2A, 3-Methanesulfinyl-4-[3-methyl-2,5-dioxo-1-(3-trifluoromethyl-phenyl)-1,2,3,4,5,6,7,8-octahydro-quinazolin-4-yl]-benzonitrile]
- IC50 (cytochrome P450 2C8): > 50 µM
- Papp A→B at 10 µM ([1]; apical-to-basal, read-out: PEAB): 19 ×10⁻⁶ cm/s
- Papp B→A at 10 µM ([1]; basal-to-apical, read-out: PEBA): 97 ×10⁻⁶ cm/s
